Columns and labels:
[1] = in vivo; conditions: dog, iv, 0.5 mg/kg
[2] = in vivo; conditions: dog, iv, 0.5 mg/kg; remark: listed apart in the source
[3] = in vivo; conditions: dog, po, 0.2 mg/kg
[4] = in vitro; conditions: human, liver microsomes
[5] = in vivo; conditions: dog, po, 0.2 mg/kg; remark: listed apart in the source
[6] = in vitro; conditions: dog, liver microsomes
[7] = physchem; conditions: octanol/water
[8] = species: Canis familiaris; conditions: dog, in vivo, po, 0.2 mg/kg

SMILES | Vd [1] [L/kg] | clearance [2] [mL/min/kg] | bioavailability [3] [%] | half-life [4] [h] | half-life [5] [h] | half-life [6] [h] | logP [7] | t1/2 [8] [h]
COc1ccc(-n2nc(C(N)=O)c3c2C(=O)N(c2ccc(C4(CN5CCCC5)CC4)cc2)CC3)cc1.O=C(O)C(F)(F)F | 7.1 | 28.3 | 6 | > 3.33 | 4 | 1 |  | 
COc1ccc(N2N=C(S(C)(=O)=O)C3CCN(c4ccc(C5(CN6CCCC6)CC5)cc4)C(=O)C32)cc1.O=C(O)C(F)(F)F (centres undefined) | 7.7 | 55 | 100 | 0.617 | 2.3 |  |  | 
COc1ccc(-n2nc(C(F)(F)F)c3c2C(=O)N(c2ccc(C4(CN(C)C)CC4)cc2)CC3)cc1 |  |  |  |  |  |  | 3.4 | 
COc1ccc(-n2nc(S(C)(=O)=O)c3c2C(=O)N(c2ccc(C4(CN5CCOCC5)CC4)cc2)CC3)cc1.O=C(O)C(F)(F)F | 1.9 | 13.3 | 61 | 0.417 | 4 |  |  | 
COc1ccc(-n2nc(C(N)=O)c3c2C(=O)N(c2ccc(C4(CN5CCCC5=O)CC4)cc2)CC3)cc1.O=C(O)C(F)(F)F | 0.2 | 4.17 | 3.1 | 0.167 | 0.99 | 0.183 |  | 
COc1ccc(-n2nc(C#N)c3c2C(=O)N(c2ccc(C4(CN(C)C)CC4)cc2)CC3)cc1.O=C(O)C(F)(F)F | 11.7 | 22.8 | 41 | 2.97 | 6.4 | 1.22 | 2.5 | 
COc1ccc(-n2nc(C(N)=O)c3c2C(=O)N(c2ccc(N4CCCCC4=O)cc2)CC3)cc1 [APIXABAN] | 0.2 | 0.333 |  |  |  |  |  | 

Results, then the compound that gave them:

Vd [1] [L/kg] | clearance [2] [mL/min/kg] | bioavailability [3] [%] | half-life [4] [h] | half-life [5] [h] | half-life [6] [h] | logP [7] | t1/2 [8] [h] | SMILES
4 | 70 | 0.2 | 0.0833 |  |  |  |  | COc1ccc(-n2nc(S(C)(=O)=O)c3c2C(=O)N(c2ccc(C4(Cn5ccnc5C)CC4)cc2)CC3)cc1.O=C(O)C(F)(F)F
 |  |  |  |  |  | 3.3 |  | COc1ccc(-n2nc(C(N)=O)c3c2C(=O)N(c2ccc(C4(CN5CCOCC5)CC4)cc2)CC3)cc1
 |  |  |  |  |  | 4 |  | COc1ccc(-n2nc(C#N)c3c2C(=O)N(c2ccc(C4(CN5CCOCC5)CC4)cc2)CC3)cc1
 |  |  |  |  |  | 3.2 |  | CNCC1(c2ccc(N3CCc4c(C(F)(F)F)nn(-c5ccc(OC)cc5)c4C3=O)cc2)CC1
 |  |  |  |  |  | 3.4 |  | COc1ccc(-n2nc(C(F)(F)F)c3c2C(=O)N(c2ccc(C4(CN5CCCC5)CC4)cc2)CC3)cc1
4.4 | 30 | 15 | 2.43 | 1.6 | 0.6 |  |  | CNC1(c2ccc(N3CCc4c(C(N)=O)nn(-c5ccc(OC)cc5)c4C3=O)cc2)CC1.O=C(O)C(F)(F)F
0.65 | 8.17 | 27 | 1.62 | 1.9 | 1.65 |  |  | COc1ccc(-n2nc(C(N)=O)c3c2C(=O)N(c2ccc(C4(CC(N)=O)CC4)cc2)CC3)cc1.O=C(O)C(F)(F)F
4.1 | 20 | 67 | 0.783 | 4.3 | 3 |  |  | COc1ccc(-n2nc(C(N)=O)c3c2C(=O)N(c2ccc(C4(N(C)CCO)CC4)cc2)CC3)cc1.O=C(O)C(F)(F)F
 |  |  |  |  |  |  | 3.4 | CN(C)Cc1nccn1-c1ccc(NC(=O)c2cc(C(F)(F)F)nn2-c2ccc3onc(N)c3c2)c(F)c1 [RAZAXABAN]
